Several values for one entry are separate records, joined by “and”; a condition that tells them apart may be missing. Equal values may be shown once.
Legend:
[1] = system: penicillin hypersensitivity (patients); assay: Comparison of skin tests with penicilloyl-poly-L-lysine and penicillin G (Table III); format: in vivo, human; details: 1163 tested
Method: One of the uses for the conjugates of this invention is in skin testing for penicillin hypersensitivity. The conjugated compositions are prepared for skin testing by first dissolving the composition in buffered isotonic solutions, having a pH in the range from 7 to 8. For example, the conjugates prepared above may be diluted with aqueous solutions 0.15 M NaCl in 0.01 M phosphate, pH 7.6. In addition, other physiological salt solutions may be used.
Intradermal injections may be made of the foregoing solutions with a 26 guage needle, the volume injected may be generally about 0.01 to 0.03 cc. Alternatively, the conjugate may be applied by the scratch test technique. The development of a wheal at the injection site after about 20 minutes indicates a positive reaction, and penicillin hypersensitivity.
Penicillin hypersensitivity tests carried out with the conjugate compositions of this invention reflect the numerous advantages of penicillin hypersensitivity determinations made with such compositions. […] In Table II the distribution of skin reactions is shown by history of penicillin therapy and hypersensitivity. […] (See column 2, for example, showing the percentages of patients tested who had […] skin test.)

[2] = system: penicillin hypersensitivity (patients); assay: Clinical evaluation by 26 investigators: scratch/intradermal skin tests with PPL and Penicillin G (Tables IV-VII, IX-XI); format: in vivo, human; details: for TOTAL (+) No. / TOTAL (+) Percent of total positive: skin reactive penicillin allergy patients
Method: Twenty-six clinical investigators contributed a total of 1160 cases to the evaluation. Patients were tested according to a protocol as follows:
1. All patients being subjected to allergy investigation were to be tested for penicillin hypersensitivity. Two preparations were to be used. These are:
2. Penicillin G (Benzyl Penicillin) in a concentration of 10,000 units per cc.
For maximum safety, it was recommended that the tests first be done by the scratch technique. Intradermal tests were then to be done on those showing negative scratch tests. In cases where the penicillin sensitivity was suspected to be of a violent character, more dilute reagents were recommended at the discretion of the individual investigator.
A uniform technique was recommended for the performance of the intradermal tests. Only a minimal amount of testing reagent was to be injected so as to make a barely discernible intradermal bleb. The amount necessary for this injection is about 0.01 to 0.03 cc. It was recognized that the intrepretation of the test results is an important matter. The reactions were to be recorded in terms of (1) the time required for the appearance of a reaction, (2) the size of erythema and (3) the size of whealing. These were to be recorded as actual measurements. Some objective measurement of dermographism was also to be recorded.
It was also contemplated that all patients who were to be treated with penicillin be tested as recommended above, even though they had previously received penicillin with impunity.
A comprehensive clinical history was takan on each patient with particular regard to previous penicillin therapy, and reaction.
In order to properly analyze the data on such a large number of patients, a data processing system was utilized.
Table IV summarizes the skin test results on all patients, without regard to other specific factors. […] It will also be noted that a significant number of patients reacted only to PPL, and another group only to Pen G. Therefore, to detect the maximum number of reactors, both test reagents would be required. A technical problem was classification of the ambiguous or borderline reactors, particularly those showing only erythema. Attempts to correlate the appearance of the erythematous flare without wheal formation with a history of penicillin hypersensitivity were unsuccessful. In some instances, however, erythema without wheal did appear to be associated with hypersensitivity to the antibiotic. The time of development of erythema without wheal varied widely from a few minutes to more than 7 days which also made its importance questionable. as a diagnostic sign. For these reasons erythema alone responses were counted with the negatives. In some instances, however, data will be presented in which erythema without wheal are counted as positive responses (figures appearing in parentheses).

[3] = Group I (675 patients): penicillin Rx, no hypersensitivity, erythema only counted as negative
[4] = Group I (675 patients): penicillin Rx, no hypersensitivity, parentheses: erythema only (ambiguous) counted as positive
[5] = Group II (352 patients): penicillin Rx & hypersensitive, erythema only counted as negative
[6] = Group II (352 patients): penicillin Rx & hypersensitive, parentheses: erythema only (ambiguous) counted as positive
[7] = Group III (70 patients): no penicillin Rx in past, erythema only counted as negative
[8] = Group III (70 patients): no penicillin Rx in past, parentheses: erythema only (ambiguous) counted as positive
[9] = Group IV (56 patients): no data, erythema only counted as negative
[10] = Group IV (56 patients): no data, parentheses: erythema only (ambiguous) counted as positive
[11] = TOTALS (1153 patients), erythema only counted as negative
[12] = TOTALS (1153 patients), parentheses: erythema only (ambiguous) counted as positive
[13] = TOTALS, all patients (1153 tested), erythema only counted as negative
[14] = TOTALS, all patients (1153 tested), parentheses: erythema only (ambiguous) counted as positive
[15] = history of therapy: Multi Courses (177 tested)
[16] = history of therapy: One Course (249 tested)
[17] = history of therapy: One Dose (152 tested)
[18] = history of therapy: TOTALS (578 tested)
[19] = reason for testing: "Penicillin" (240 tested)
[20] = reason for testing: Other Substances (463 tested)
[21] = reaction between 30 minutes and 24 hours post therapy, erythema only counted as negative
[22] = reaction between 30 minutes and 24 hours post therapy, parentheses: erythema only (ambiguous) counted as positive
[23] = reaction more than 24 hours post therapy, erythema only counted as negative
[24] = reaction more than 24 hours post therapy, parentheses: erythema only (ambiguous) counted as positive
[25] = reaction within 30 minutes post therapy, erythema only counted as negative
[26] = reaction within 30 minutes post therapy, parentheses: erythema only (ambiguous) counted as positive
[27] = type of hypersensitivity reaction: Skin (309 tested)
[28] = type of hypersensitivity reaction: Visceral (43 tested)

For `CC1(C)S[C@@H]2[C@H](NC(=O)Cc3ccccc3)C(=O)N2[C@H]1C(=O)O` [PG, Benzyl Penicillin, reference compound], the “POSITIVE SKIN TESTS %” value [1] was 14.3%, the “Positive Skin Tests, Number of Patients” value [1] was 166 and the “Skin Test (+) No.” value [2, 3] was 24. For the same molecule, the “Skin Test (+) Percent” value [2, 3] was 3.6%, the “Skin Test (-) No.” value [2, 3] was 651 and the “Skin Test (-) Percent” value [2, 3] was 96.4%. The “Skin Test (+) No.” value [2, 4] was 56, the “Skin Test (+) Percent” value [2, 4] was 8.3% and the “Skin Test (-) No.” value [2, 4] was 619. For the same molecule, the “Skin Test (-) Percent” value [2, 4] was 91.7%, the “Skin Test (+) No.” value [2, 5] was 47 and the “Skin Test (+) Percent” value [2, 5] was 13.4%. For the same molecule, the “Skin Test (-) No.” value [2, 5] was 305, the “Skin Test (-) Percent” value [2, 5] was 86.6% and the “Skin Test (+) No.” value [2, 6] was 65. For the same molecule, the “Skin Test (+) Percent” value [2, 6] was 18.5%, the “Skin Test (-) No.” value [2, 6] was 287 and the “Skin Test (-) Percent” value [2, 6] was 81.5%. For the same molecule, the “Skin Test (-) No.” value [2, 7] was 70, the “Skin Test (-) Percent” value [2, 7] was 100.0% and the “Skin Test (+) No.” value [2, 8] was 5. The “Skin Test (+) Percent” value [2, 8] was 7.1%, the “Skin Test (-) No.” value [2, 8] was 65 and the “Skin Test (-) Percent” value [2, 8] was 92.9%. The “Skin Test (+) No.” value [2, 9] was 1, the “Skin Test (+) Percent” value [2, 9] was 1.8% and the “Skin Test (-) No.” value [2, 9] was 55. The “Skin Test (-) Percent” value [2, 9] was 98.2%, the “Skin Test (+) No.” value [2, 10] was 3 and the “Skin Test (+) Percent” value [2, 10] was 5.3%. For the same molecule, the “Skin Test (-) No.” value [2, 10] was 53, the “Skin Test (-) Percent” value [2, 10] was 94.6% and the “SKIN TEST RESPONSE No.” value ([2]; No reactions (675 tested)) was 24. The “SKIN TEST RESPONSE Percent” value ([2]; No reactions (675 tested)) was 3.6%, the “Skin Test (-) No.” value [2, 11] was 1081 and the “Skin Test (-) Percent” value [2, 11] was 93.8%. The “Skin Test (-) No.” value [2, 12] was 1024, the “Skin Test (-) Percent” value [2, 12] was 88.8% and the “Skin Test (+) No.” value [2, 13] was 72. For the same molecule, the “Skin Test (+) Percent” value [2, 13] was 6.2% and 6.3%, the “Skin Test (+) No.” value [2, 14] was 129 and the “Skin Test (+) Percent” value [2, 14] was 11.2%. For the same molecule, the “positive skin tests, patients positive/patients in group” value ([2]; delayed (after 24 hours) group) was 17/144, the “positive skin tests, percent of group” value ([2]; delayed (after 24 hours) group, 144 patients) was 11.8% and the “Skin Reactions PPL- / PEN G- No.” value [2, 15] was 10. The “Skin Reactions PPL- / PEN G- Percent” value [2, 15] was 5.6%, the “Skin Reactions PPL- / PEN G- No.” value [2, 16] was 8 and the “Skin Reactions PPL- / PEN G- Percent” value [2, 16] was 3.2%. The “Skin Reactions PPL- / PEN G- No.” value [2, 17] was 17, the “Skin Reactions PPL- / PEN G- Percent” value [2, 17] was 11.2% and the “Skin Reactions PPL- / PEN G- No.” value [2, 18] was 35. For the same molecule, the “Skin Reactions PPL- / PEN G- Percent” value [2, 18] was 6.1%, the “positive skin tests, patients positive/patients in group” value ([2]; immediate reacting group (within 30 minutes)) was 17/56 and the “positive skin tests, percent of group” value ([2]; immediate reacting group (within 30 minutes), 56 patients) was 30.4%. For the same molecule, the “percent of skin-test positive patients that would be missed if only this reagent were used as skin test antigen” value ([2]; immediate reactor group) was 45%, the “Skin Test (+) No.” value [2, 19] was 24 and the “Skin Test (+) Percent” value [2, 19] was 10.0%. For the same molecule, the “Skin Test (+) No.” value [2, 20] was 9, the “Skin Test (+) Percent” value [2, 20] was 1.9% and the “safety of skin testing” value ([2]; scratch and intradermal skin testing of patients) was “safe”. The “TOTAL (+) No.” value [2, 21] was 17, the “TOTAL (+) Percent of total positive” value [2, 21] was 65.4% and the “TOTAL (+) No.” value [2, 22] was 21. The “TOTAL (+) Percent of total positive” value [2, 22] was 67.7%, the “TOTAL (+) No.” value [2, 23] was 17 and the “TOTAL (+) Percent of total positive” value [2, 23] was 51.5%. The “TOTAL (+) Percent of total positive” value ([2]; reaction more than 24 hours post therapy, erythema only counted as negative, listed as Penicillin G) was ≤ 51.5%, the “TOTAL (+) No.” value [2, 24] was 22 and the “TOTAL (+) Percent of total positive” value [2, 24] was 50.0%. The “TOTAL (+) No.” value [2, 25] was 17, the “TOTAL (+) Percent of total positive” value [2, 25] was 54.8% and the “TOTAL (+) Percent of total positive” value ([2]; reaction within 30 minutes post therapy, erythema only counted as negative, listed as Pen G) was 55%. For the same molecule, the “TOTAL (+) Percent of total positive” value ([2]; reaction within 30 minutes post therapy, erythema only counted as negative, listed as Penicillin G) was 54.8%, the “TOTAL (+) No.” value [2, 26] was 17 and the “TOTAL (+) Percent of total positive” value [2, 26] was 47.2%. The “SKIN TEST RESPONSE No.” value [2, 27] was 39, the “SKIN TEST RESPONSE Percent” value [2, 27] was 12.6% and the “SKIN TEST RESPONSE No.” value [2, 28] was 14. The “SKIN TEST RESPONSE Percent” value [2, 28] was 32.6%.

From patent US3979508A, “Compositions and methods therewith for penicillin hypersensitivity detection” (Kremers-Urban Company, priority 1975, dated 1976)
